Values after ≈ are worked out from the molar mass of the structure shown.
Columns and labels:
Homo sapiens [1] = species on record: Homo sapiens; assay: Selectivity index, ratio of Ki for recombinant human PI3K p110beta/p85alpha to Ki for recombinant human full-length PI3K p110alpha/p85alpha (322 to 600) using phosphatidylinositol 4,5-bisphosphate as substrate
Homo sapiens [2] = species on record: Homo sapiens; assay: Selectivity index, ratio of Ki for recombinant human PI3K p110delta/p85alpha to Ki for recombinant human full-length PI3K p110alpha/p85alpha (322 to 600) using phosphatidylinositol 4,5-bisphosphate as substrate
PI3K p110 beta/p85 alpha = PI3K p110 beta/p85 alpha (Homo sapiens, UniProt P42338); assay: Inhibition of recombinant human PI3K p110beta/p85alpha using phosphatidylinositol 4,5-bisphosphate as substrate preincubated for 15 mins followed by addition of ATP and measured after 30 mins by fluorescence polarisation assay; type: protein-complex assay
Chain of PI3K p110 beta/p85 alpha (P27986 whole entry): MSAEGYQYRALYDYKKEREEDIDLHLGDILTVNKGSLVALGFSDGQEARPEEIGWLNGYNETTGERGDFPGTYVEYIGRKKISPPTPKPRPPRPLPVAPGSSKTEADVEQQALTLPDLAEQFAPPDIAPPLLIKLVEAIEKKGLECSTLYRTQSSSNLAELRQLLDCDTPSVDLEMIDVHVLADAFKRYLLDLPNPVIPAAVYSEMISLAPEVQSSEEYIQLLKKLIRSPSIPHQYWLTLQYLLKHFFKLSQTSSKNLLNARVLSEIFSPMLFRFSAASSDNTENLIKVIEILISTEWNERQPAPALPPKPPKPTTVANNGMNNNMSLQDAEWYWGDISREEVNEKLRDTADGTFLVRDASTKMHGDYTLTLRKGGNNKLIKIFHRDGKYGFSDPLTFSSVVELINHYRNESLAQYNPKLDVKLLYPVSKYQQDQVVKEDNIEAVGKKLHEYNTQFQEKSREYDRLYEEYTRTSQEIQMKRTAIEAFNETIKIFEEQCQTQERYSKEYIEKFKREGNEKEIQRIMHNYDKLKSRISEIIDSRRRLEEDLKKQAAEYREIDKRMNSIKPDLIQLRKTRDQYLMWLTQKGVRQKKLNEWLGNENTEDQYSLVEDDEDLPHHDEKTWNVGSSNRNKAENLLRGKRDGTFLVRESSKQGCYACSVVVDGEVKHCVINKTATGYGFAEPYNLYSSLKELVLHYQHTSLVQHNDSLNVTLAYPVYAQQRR
Chain of PI3K p110 beta/p85 alpha (P42338 whole entry): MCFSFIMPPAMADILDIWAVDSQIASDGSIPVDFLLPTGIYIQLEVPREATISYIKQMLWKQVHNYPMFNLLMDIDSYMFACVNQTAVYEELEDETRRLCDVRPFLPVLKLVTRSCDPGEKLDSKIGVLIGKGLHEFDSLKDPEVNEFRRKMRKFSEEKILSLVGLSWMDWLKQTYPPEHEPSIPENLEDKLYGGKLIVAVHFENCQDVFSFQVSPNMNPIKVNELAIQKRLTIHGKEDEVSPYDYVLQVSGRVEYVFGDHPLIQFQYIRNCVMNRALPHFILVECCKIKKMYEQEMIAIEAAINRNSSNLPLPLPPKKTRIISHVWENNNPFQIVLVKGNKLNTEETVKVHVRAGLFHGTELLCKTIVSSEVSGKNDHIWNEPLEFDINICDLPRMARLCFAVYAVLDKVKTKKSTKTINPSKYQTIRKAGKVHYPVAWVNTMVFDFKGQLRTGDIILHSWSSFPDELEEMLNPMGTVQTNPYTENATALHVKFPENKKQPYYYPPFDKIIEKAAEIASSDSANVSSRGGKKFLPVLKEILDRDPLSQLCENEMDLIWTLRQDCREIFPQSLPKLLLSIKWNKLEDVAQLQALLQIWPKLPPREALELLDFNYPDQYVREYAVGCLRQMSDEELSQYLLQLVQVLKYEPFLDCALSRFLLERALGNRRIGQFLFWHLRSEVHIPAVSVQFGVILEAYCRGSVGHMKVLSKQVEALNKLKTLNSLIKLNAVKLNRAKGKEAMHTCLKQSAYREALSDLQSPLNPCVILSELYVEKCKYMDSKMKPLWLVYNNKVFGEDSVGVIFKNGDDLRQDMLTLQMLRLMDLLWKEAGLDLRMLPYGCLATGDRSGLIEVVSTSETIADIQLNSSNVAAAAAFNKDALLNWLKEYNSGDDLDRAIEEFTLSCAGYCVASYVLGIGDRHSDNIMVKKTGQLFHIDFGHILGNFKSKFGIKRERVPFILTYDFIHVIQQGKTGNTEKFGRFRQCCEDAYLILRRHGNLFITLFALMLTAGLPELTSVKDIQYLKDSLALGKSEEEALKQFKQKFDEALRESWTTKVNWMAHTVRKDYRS

[3] = Kinetic solubility of compound; type: physicochemical; details: read-out: Kinetic_solubility
[4] = molecular target: Phosphatidylinositol 4,5-bisphosphate 3-kinase catalytic subunit alpha isoform (Homo sapiens, UniProt P42336); assay: Inhibition of recombinant human N-terminal Myr signal and C-terminal Flag-tagged PI3K p110alpha expressed in rat Rat1 cells; type: cell-based
Chain of Phosphatidylinositol 4,5-bisphosphate 3-kinase catalytic subunit alpha isoform (P42336 whole entry, canonical isoform): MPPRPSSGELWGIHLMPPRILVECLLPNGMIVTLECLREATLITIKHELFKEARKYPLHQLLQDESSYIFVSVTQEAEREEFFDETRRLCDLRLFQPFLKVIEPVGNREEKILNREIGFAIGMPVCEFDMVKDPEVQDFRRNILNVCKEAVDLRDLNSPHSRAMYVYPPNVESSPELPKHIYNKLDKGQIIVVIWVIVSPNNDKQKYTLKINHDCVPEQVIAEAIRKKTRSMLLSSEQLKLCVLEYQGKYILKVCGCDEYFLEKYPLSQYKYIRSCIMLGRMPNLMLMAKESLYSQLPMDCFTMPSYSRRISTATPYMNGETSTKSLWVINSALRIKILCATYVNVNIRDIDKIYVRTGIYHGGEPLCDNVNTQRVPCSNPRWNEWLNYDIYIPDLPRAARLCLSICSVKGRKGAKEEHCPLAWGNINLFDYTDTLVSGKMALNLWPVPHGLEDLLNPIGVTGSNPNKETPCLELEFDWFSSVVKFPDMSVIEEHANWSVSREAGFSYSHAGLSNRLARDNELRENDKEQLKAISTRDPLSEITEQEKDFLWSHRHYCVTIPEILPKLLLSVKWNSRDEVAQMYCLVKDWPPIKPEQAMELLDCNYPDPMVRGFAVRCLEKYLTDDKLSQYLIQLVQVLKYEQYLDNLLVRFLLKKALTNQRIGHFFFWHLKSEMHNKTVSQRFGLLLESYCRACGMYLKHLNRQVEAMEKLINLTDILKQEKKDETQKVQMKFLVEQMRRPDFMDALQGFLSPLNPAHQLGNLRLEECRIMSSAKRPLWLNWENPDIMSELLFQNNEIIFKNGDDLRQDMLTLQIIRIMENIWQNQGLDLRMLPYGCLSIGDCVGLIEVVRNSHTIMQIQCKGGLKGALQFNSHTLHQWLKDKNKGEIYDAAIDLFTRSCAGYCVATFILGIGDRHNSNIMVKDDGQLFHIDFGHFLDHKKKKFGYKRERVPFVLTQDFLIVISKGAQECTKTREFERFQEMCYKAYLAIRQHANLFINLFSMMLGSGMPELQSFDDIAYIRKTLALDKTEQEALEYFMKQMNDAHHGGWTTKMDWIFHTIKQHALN

[5] = molecular target: PI3-kinase p110-delta/p85-alpha (Homo sapiens, UniProt O00329); assay: Inhibition of recombinant human PI3K p110delta/p85alpha using phosphatidylinositol 4,5-bisphosphate as substrate preincubated for 15 mins followed by addition of ATP and measured after 30 mins by fluorescence polarisation assay; type: protein-complex assay
Chain of PI3-kinase p110-delta/p85-alpha (P27986 whole entry, one chain of several): as the sequence (P27986 whole entry) above

[6] = molecular target: PI3-kinase p110-alpha/p85-alpha (Homo sapiens, UniProt P42336); assay: Inhibition of recombinant human full-length PI3K p110alpha/p85alpha (322 to 600) expressed in baculovirus infected Sf21 cells using phosphatidylinositol 4,5-bisphosphate as substrate preincubated for 15 mins followed by addition of ATP and measured after 30 mins by fluorescence polarisation assay
Chain of PI3-kinase p110-alpha/p85-alpha (P27986 whole entry): as above
Chain of PI3-kinase p110-alpha/p85-alpha (P42336 whole entry): as the sequence (P42336 whole entry, canonical isoform) above

[7] = Passive permeability of compound in RRCK cells; type: ADME, cell-based, Canis lupus familiaris, MDCKII-LE; details: dog, MDCK; read-out: permeability
[8] = Apparent intrinsic clearance in human liver microsomes; type: ADME, Microsome; details: read-out: CLH(app)
[9] = Distribution coefficient, logD of compound at pH 7.4; type: physicochemical; details: octanol/water
[10] = molecular target: T1, Phosphatidylinositol 4,5-bisphosphate 3-kinase catalytic subunit delta isoform (Homo sapiens, UniProt O00329); assay: Inhibition of recombinant human N-terminal Myr signal and C-terminal Flag-tagged PI3K p110delta expressed in rat Rat1 cells; type: cell-based
T1 sequence (O00329 whole entry): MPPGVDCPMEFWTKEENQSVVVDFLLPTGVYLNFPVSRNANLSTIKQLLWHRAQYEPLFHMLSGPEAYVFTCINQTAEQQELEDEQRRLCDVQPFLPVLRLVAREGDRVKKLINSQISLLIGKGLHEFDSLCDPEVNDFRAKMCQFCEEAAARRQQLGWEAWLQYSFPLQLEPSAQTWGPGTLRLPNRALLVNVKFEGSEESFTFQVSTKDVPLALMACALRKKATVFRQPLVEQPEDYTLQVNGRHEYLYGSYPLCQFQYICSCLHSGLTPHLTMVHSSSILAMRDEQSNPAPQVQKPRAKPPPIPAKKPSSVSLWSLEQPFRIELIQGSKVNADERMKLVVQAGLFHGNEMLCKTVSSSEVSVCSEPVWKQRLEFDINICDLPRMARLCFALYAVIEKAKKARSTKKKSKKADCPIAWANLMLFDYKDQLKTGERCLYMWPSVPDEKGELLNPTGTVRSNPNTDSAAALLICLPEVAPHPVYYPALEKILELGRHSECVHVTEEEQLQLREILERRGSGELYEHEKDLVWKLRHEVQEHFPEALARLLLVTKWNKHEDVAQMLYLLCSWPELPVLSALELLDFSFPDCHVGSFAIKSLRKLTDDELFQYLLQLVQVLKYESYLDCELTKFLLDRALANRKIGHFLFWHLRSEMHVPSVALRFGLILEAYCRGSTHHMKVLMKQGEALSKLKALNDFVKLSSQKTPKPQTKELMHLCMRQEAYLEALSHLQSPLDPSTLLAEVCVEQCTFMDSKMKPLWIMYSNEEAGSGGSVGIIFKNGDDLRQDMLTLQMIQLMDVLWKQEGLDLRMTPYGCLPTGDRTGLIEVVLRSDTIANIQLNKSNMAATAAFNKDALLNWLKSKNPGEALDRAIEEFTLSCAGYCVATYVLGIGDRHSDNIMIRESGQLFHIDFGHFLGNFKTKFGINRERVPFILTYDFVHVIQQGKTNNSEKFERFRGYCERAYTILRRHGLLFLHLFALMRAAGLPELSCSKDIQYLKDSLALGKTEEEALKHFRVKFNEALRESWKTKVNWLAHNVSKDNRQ

[11] = molecular target: Phosphatidylinositol 4,5-bisphosphate 3-kinase catalytic subunit beta isoform (Homo sapiens, UniProt P42338); assay: Inhibition of recombinant human N-terminal Myr signal and C-terminal Flag-tagged PI3K p110beta expressed in rat Rat1 cells; type: cell-based
Chain of Phosphatidylinositol 4,5-bisphosphate 3-kinase catalytic subunit beta isoform (P42338 whole entry, canonical isoform): as the sequence (P42338 whole entry) above

T47D = assay: Antiproliferation activity against human T47D cells assessed as reduction in cell viability incubated for 7 days by Cell-titer Glo reagent based assay; type: functional; details: 168 h
[12] = Half life in Wistar Han rat at 2 mg/kg, iv; type: ADME, organism-based; details: in vivo
[13] = Cmax in Wistar Han rat at 10 mg/kg, po; type: ADME, organism-based; design: route oral, dose 10 mg/kg; details: in vivo
MCF7 = assay: Antiproliferation activity against human MCF7 cells assessed as reduction in cell viability incubated for 7 days by Cell-titer Glo reagent based assay; type: functional; details: MCF7, 168 h
[14] = Volume of distribution at steady state in Wistar Han rat at 2 mg/kg, iv; type: ADME, organism-based; details: in vivo, read-out: Vdss
[15] = Inhibition of PI3K p110alpha […] mutant in human MCF7 cells assessed as reduction in phosphorylation of Akt at T308 residue incubated for 2 hrs by ELISA; type: cell-based; details: MCF7, 2 h
[16] = Oral bioavailability in Wistar Han rat at 10 mg/kg; type: ADME, organism-based; details: in vivo
Rat1 [17] = assay: Selectivity index, ratio of IC50 for recombinant human N-terminal Myr signal and C-terminal Flag-tagged PI3K p110delta to IC50 for recombinant human N-terminal Myr signal and C-terminal Flag-tagged PI3K p110alpha expressed in rat Rat1 cells; type: cell-based
[18] = AUC (0 to t) in Wistar Han rat at 2 mg/kg, iv; type: ADME, organism-based; design: dose 2 mg/kg; details: in vivo
[19] = AUC (0 to t) in Wistar Han rat at 10 mg/kg, po; type: ADME, organism-based; design: dose 10 mg/kg; details: in vivo
Rat1 [20] = assay: Selectivity index, ratio of IC50 for recombinant human N-terminal Myr signal and C-terminal Flag-tagged PI3K p110beta to IC50 for recombinant human N-terminal Myr signal and C-terminal Flag-tagged PI3K p110alpha expressed in rat Rat1 cells; type: cell-based
[21] = Thermodynamic solubility of compound at pH 7.4; type: physicochemical; details: buffer, read-out: Therm_solubility
Homo sapiens [22] = species on record: Homo sapiens; assay: Selectivity index, ratio of IC50 for mTOR in human MCF7 cells to Ki for recombinant human full-length PI3K p110alpha/p85alpha; type: cell-based
[23] = Tmax in Wistar Han rat at 10 mg/kg, po; type: ADME, organism-based; details: in vivo
[24] = molecular target: Serine/threonine-protein kinase mTOR (Homo sapiens, UniProt P42345); assay: Inhibition of mTOR in TSC1 null human MCF7 cells assessed as decrease in p70S6K phosphorylation at Thr389 residue incubated for 2 hrs by ELISA; type: cell-based
[25] = Plasma clearance in Wistar Han rat at 2 mg/kg, iv; type: ADME, organism-based
Homo sapiens [26] = species on record: Homo sapiens; assay: Selectivity index, ratio of IC50 for recombinant human N-terminal Myr signal and C-terminal Flag-tagged PI3K p110beta to Ki for recombinant human full-length PI3K p110alpha/p85alpha
[27] = Kinetic solubility of compound at pH 7.4 after 24 hrs by LC/MS/MS analysis; type: physicochemical; details: buffer, read-out: Kinetic_solubility
Homo sapiens [28] = species on record: Homo sapiens; assay: Selectivity index, ratio of IC50 for recombinant human N-terminal Myr signal and C-terminal Flag-tagged PI3K p110delta to Ki for recombinant human full-length PI3K p110alpha/p85alpha
[29] = Inhibition of PI3K p110alpha H1047R mutant in human T47D cells assessed as reduction in phosphorylation of Akt at T308 residue incubated for 2 hrs by ELISA; type: cell-based

Row | SMILES | Ki (PI3K p110 beta/p85 alpha) [nM] | solubility kinetic [3] [µM] | IC50 [4] [nM] | Ki [5] [nM] | Ki [6] [nM] | Papp [7] [×10⁻⁶ cm/s] | microsomal CLint [8] [µL/min/mg] | logD [9] | IC50 [10] [nM] | IC50 [11] [nM] | Ratio IC50 (Rat1 [17]) | Ratio IC50 (Rat1 [20]) | further results
1 | CNS(=O)(=O)N1CC[C@H](N2CCc3c(-c4cnc(N)nc4)nc(N4CCOCC4)nc32)C1 | 16 | 380 (≈ 175 µg/mL) | 130 | 4.5 | 0.12 | 16 | < 11 | 1.4 | – | – | – | – | Ratio Ki (Homo sapiens [1]): 125; Ratio Ki (Homo sapiens [2]): 37
2 | CNS(=O)(=O)N1CC[C@](C)(N2CCc3c(-c4cnc(N)nc4)nc(N4CCOCC4)nc32)C1 | 4.9 | 510 (≈ 243 µg/mL) | 27 | < 0.28 | < 0.018 | 24 | 20 | 1.9 | 44 | 170 | – | – | –
3 | Nc1ncc(-c2nc(N3CCOCC3)nc(N[C@@]3(CO)CCN(C(=O)OCC(F)F)C3)c2F)cn1 | 2 | 2.5 (≈ 1.25 µg/mL) | 18 | < 0.28 | < 0.018 | 13 | < 18 | 1.9 | 160 | 360 | 9 | 20 | IC50 (T47D): 32 nM; half-life [12]: 216 min; Cmax [13]: 330 ng/mL; IC50 (MCF7): 62 nM; Vd [14]: 3 L/kg; IC50 [15]: 7.8 nM; bioavailability [16]: 25%; AUC(0-t) [18]: 1100 ng·h/mL; AUC(0-t) [19]: 1400 ng·h/mL; solubility thermodynamic [21]: 6.2 µg/mL (≈ 12.4 µM); Selectivity Index (Homo sapiens [22]): 83; Tmax [23]: 1 h; IC50 [24]: 1500 nM; clearance [25]: 30 mL/min/kg; Selectivity Index (Homo sapiens [26]): 20; solubility kinetic at 24 h [27]: 1.3 µg/mL (≈ 2.61 µM); Selectivity Index (Homo sapiens [28]): 9; IC50 [29]: 8.7 nM
4 | CC(C)(C)OC(=O)N1CC[C@](C)(N2CCc3c(-c4cnc(N)nc4)nc(N4CCOCC4)nc32)C1 | 25 | 97 (≈ 46.8 µg/mL) | 6.8 | 0.46 | < 0.018 | 21 | 160 | 3.7 | 92 | 640 | 14 | 94 | Ratio Ki (Homo sapiens [1]): > 1390; Ratio Ki (Homo sapiens [2]): > 26
5 | CC(=O)N1CC[C@@](C)(N2CCc3c(-c4cnc(N)nc4)nc(N4CCOCC4)nc32)C1 | 6.7 | 520 (≈ 221 µg/mL) | 35 | 1.2 | 0.078 | 16 | < 8 | 1.6 | 74 | 95 | – | – | –
6 | Cc1nc(NC(=O)N2CCC[C@H]2C(N)=O)sc1-c1ccnc(C(C)(C)C(F)(F)F)c1 [ALPELISIB] | – | – | – | – | – | – | – | – | – | – | – | – | IC50 (T47D): 420 nM; IC50 (MCF7): 530 nM; IC50 [15]: 39 nM; IC50 [24]: 3000 nM; IC50 [29]: 30 nM
7 | CC(C)C(=O)N1CC[C@](C)(N2CCc3c(-c4cnc(N)nc4)nc(N4CCOCC4)nc32)C1 | 17 | 500 (≈ 226 µg/mL) | 6.9 | < 0.28 | < 0.018 | 36 | 46 | 2.4 | 17 | 260 | 3 | 37 | –
8 | CC(=O)N1CC[C@H](N2CCc3c(-c4cnc(N)nc4)nc(N4CCOCC4)nc32)C1 | 20 | 530 (≈ 218 µg/mL) | – | 22 | – | 13 | < 8 | 1.1 | – | – | – | – | Ratio Ki (Homo sapiens [1]): 17; Ratio Ki (Homo sapiens [2]): 19
9 | COC(=O)N1CC[C@](CO)(Nc2nc(N3CCOCC3)nc(-c3cnc(N)nc3)c2F)C1 | 5 | 42 (≈ 18.8 µg/mL) | 47 | < 0.28 | < 0.018 | 6.2 | < 8 | 1.6 | 300 | 360 | – | – | –
10 | CC(C)(N)C(=O)N1CC[C@](C)(N2CCc3c(-c4cnc(N)nc4)nc(N4CCOCC4)nc32)C1 | 13 | 460 (≈ 215 µg/mL) | 25 | 2.5 | 0.023 | 4.2 | < 9 | 0.4 | 120 | 330 | 5 | 13 | –
11 | COC(=O)N1CC[C@](C)(N2CCc3c(-c4cnc(N)nc4)nc(N4CCOCC4)nc32)C1 | 0.79 | 490 (≈ 216 µg/mL) | 5 | < 0.28 | < 0.023 | 27 | 29 | 2.6 | 13 | 45 | – | – | –

Source: ChEMBL document CHEMBL4706640, “Structure-Based Drug Design and Synthesis of PI3Kα-Selective Inhibitor (PF-06843195)” (J Med Chem, 2021)
